Laboratory results from BindingDB's records for PubMed 34236862 (Lodz University of Technology, 2021).

Test: Inhibition of Rac1 GTPase in human MDA-MB-231 cells assessed as inhibition of cell proliferation treated for 72 hrs by MTT assay

Cc1cc(C)cc(NC(=N)Nc2ccccc2C(F)(F)F)c1
IC50: 21 µM
